In US20240116882A1, “NOVEL BENZOTRIAZOLE DERIVATIVE HAVING INHIBITORY ACTIVITY AGAINST ECTONUCLEOTIDE PYROPHOSPHATASE-PHOSPHODIESTERASE, AND USE THEREOF” (TXINNO BIOSCIENCE INC., priority 2021, published 2024) one finds IC50 data, which are given here for 33 compounds.

The structures appear in SMILES notation. Where a name gives a salt, the structure may show the parent alone.

This assay deals with T1, human recombinant ENPP1 enzymes (Homo sapiens, UniProt P22413).
T1 construct: purchased R & D systems
T1 sequence (P22413 1-925): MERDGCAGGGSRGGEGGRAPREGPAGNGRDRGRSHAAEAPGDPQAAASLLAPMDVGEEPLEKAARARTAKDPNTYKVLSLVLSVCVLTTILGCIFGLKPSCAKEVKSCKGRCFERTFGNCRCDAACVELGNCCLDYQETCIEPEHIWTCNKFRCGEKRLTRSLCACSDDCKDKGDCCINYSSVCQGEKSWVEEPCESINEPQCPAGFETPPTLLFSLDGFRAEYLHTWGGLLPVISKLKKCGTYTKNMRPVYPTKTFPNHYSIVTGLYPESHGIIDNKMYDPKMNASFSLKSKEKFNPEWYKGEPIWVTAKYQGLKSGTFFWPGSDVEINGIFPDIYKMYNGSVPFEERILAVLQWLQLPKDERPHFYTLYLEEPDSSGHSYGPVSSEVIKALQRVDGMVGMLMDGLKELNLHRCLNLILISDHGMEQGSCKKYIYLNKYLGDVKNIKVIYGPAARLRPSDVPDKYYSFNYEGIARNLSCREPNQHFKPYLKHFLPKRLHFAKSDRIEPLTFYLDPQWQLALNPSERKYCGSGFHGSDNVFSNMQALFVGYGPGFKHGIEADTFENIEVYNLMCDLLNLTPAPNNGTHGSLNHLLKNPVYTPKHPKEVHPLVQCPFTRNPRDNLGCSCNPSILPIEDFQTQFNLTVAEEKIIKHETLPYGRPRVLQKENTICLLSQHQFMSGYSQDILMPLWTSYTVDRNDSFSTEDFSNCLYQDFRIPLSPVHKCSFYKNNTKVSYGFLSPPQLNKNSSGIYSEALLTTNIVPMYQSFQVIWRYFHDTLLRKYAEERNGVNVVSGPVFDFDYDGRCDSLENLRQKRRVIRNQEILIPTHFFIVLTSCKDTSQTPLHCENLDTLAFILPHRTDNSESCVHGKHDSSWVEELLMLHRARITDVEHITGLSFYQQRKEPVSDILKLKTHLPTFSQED
The experiment in a line: ENPP1 Enzyme Assay with cGAMP Substrate (AMP-Glo). It counts as biochemical. The note with it: human recombinant ENPP1, cGAMP 5 μM, 37° C. 90 minutes, AMP-Glo luminescence; read-out: Enzymatic activity (IC50). As for the experimental part: ENPP1 hydrolyzes nucleotides or nucleotide derivatives to produce nucleoside-5′-monophosphate and pyrophosphate. In addition, ENPP1 hydrolyzes 2′,3′-cGAMP to produce 5′-adenosine monophosphate (AMP) and 5′-guanosine monophosphate (GMP). AMP produced from the reaction is measured using the AMP-Glo® kit (Promega). The AMP-Glo® kit contains two reagents. The first reagent terminates the AMP-producing enzymatic reaction, removes ATP and converts the produced AMP into ADP. The second reagent converts ADP into ATP which is used to generate luminescence in the luciferase reaction. The amount of luminescence measured is proportional to the amount of AMP produced by ENPP1.
The final reaction solution contains 50 mM Tris (pH 8.5) buffer, 250 mM NaCl, 0.5 mM CaCl2), 1 μM ZnCl2, 5% glycerol and 1% DMSO. Serially diluted ENPP1 inhibitors (typically in the range of 10 μM to 0.5 nM) were pre-stored with human recombinant ENPP1 enzymes (R & D systems) at 3 ng/reaction and room temperature (RT) for 5 to 10 minutes. The reaction was initiated by addition of cGAMP (at a final concentration of 5 μM) and reacted at 37° C. for 90 minutes. At the end of the reaction, 10 μl of the AMP-Glo first reagent was added to stop the reaction and the result was stored at room temperature for 1 hour. After storage, 20 μl of an AMP detection solution (a mixture of AMP-Glo II reagent and Kinase-Glo at a ratio of 1:100) was added and stored at room temperature for 1 hour. Luminescence signals were measured using a Victor® plate reader (Perkin Elmer). The maximal activity control (containing enzymes and substrates in the presence of 1% DMSO; MAX) and the minimal activity control (containing substrates and 1% DMSO; MIN) were evaluated simultaneously. In each experiment, serially diluted reference ENPP1 inhibitors were tested as well. IC50, indicating % residual activity versus compound concentration was determined by fitting inhibition curves using the 3-parameter analysis of GraphPad Prism® software. Serially diluted samples of one compound were tested two or more times and an average IC50 of each compound was calculated.
For `COc1ccc2c(c1)nnn2-c1cc(C)sc1CN` [Example 31, 3-(5-methoxy-1H-benzo[d][1,2,3]triazol-1-yl)-5-methylthiophen-2-yl)methanamine Hydrochloride], the IC50 (usually the concentration at which inhibition is half-maximal) was more than 10 µM.

Take `COc1ccc2c(c1)nnn2C1CCN(CCS(=O)(=O)F)CC1` [Example 111, 2-(4-(5-methoxy-1H-benzo[d][1,2,3]triazol-1-yl)piperidin-1-yl)ethane-1-sulfonyl Fluoride]: the IC50 is more than 10 µM.

Consider `Cc1ccc2c(c1)nnn2-c1ccc(CNS(N)(=O)=O)cc1F` [Example 75, N-(3-fluoro-4-(5-methyl-1H-benzo[d][1,2,3]triazol-1-yl)benzyl)sulfamide], for which the IC50 was more than 10 µM.

Regarding `COc1ccc2c(c1)nnn2-c1cc2c(cc1F)CNCC2` [Example 26, 7-fluoro-6-(5-methoxy-1H-benzo[d][1,2,3]triazol-1-yl)-1,2,3,4-tetrahydroisoquinoline Hydrochloride], the half-inhibitory concentration (IC50) was more than 10 µM.

`COc1cc2nnn(-c3ccc(CNS(N)(=O)=O)cc3)c2cc1OC` [Example 55, N-(4-(5,6-dimethoxy-1H-benzo[d][1,2,3]triazol-1-yl)benzyl)sulfamide]: the IC50 was less than 1 µM.

On to `COc1ccc2c(c1)nnn2-c1ccc2c(c1)CNCC2` [Example 25, 7-(5-methoxy-1H-benzo[d][1,2,3]triazol-1-yl)-1,2,3,4-tetrahydroisoquinoline Hydrochloride], for which the concentration for half-maximal inhibition (IC50) is more than 10 µM.

For the compound `COc1ccc2c(c1)nnn2-c1cccc(CCNS(N)(=O)=O)c1` [Example 72, N-(3-(5-methoxy-1H-benzo[d][1,2,3]triazol-1-yl)phenethyl)sulfamide], the IC50 is less than 1 µM.

Turning to `CC(F)(F)c1ccc2c(c1)nnn2-c1ccc(CN)cc1` [Example 21], the IC50 is more than 10 µM.

As for `CCOP(=O)(NCc1ccc(-n2nnc3cc(OC)ccc32)c(F)c1)OCC` [Example 117, diethyl-(3-fluoro-4-(5-methoxy-1H-benzo[d][1,2,3]triazol-1-yl)benzyl)phosphoamidite], the 50% inhibitory concentration (IC50) is more than 10 µM.

In the case of `COc1ccc2c(c1)nnn2-c1cc2c(cc1F)CN(S(N)(=O)=O)CC2` [Example 101, 7-fluoro-6-(5-methoxy-1H-benzo[d][1,2,3]triazol-1-yl)-3,4-dihydroisoquinoline-2(1H)-sulfonamide], the IC50 is less than 1 µM.

In the case of `NS(=O)(=O)NCc1ccc(-n2nnc3ccccc32)c(F)c1` [Example 56, N-(4-(1H-benzo[d][1,2,3]triazol-1-yl)-3-fluorobenzyl)sulfamide], the IC50 is less than 1 µM.

On to `NS(=O)(=O)NCc1ccc(-n2nnc3cc(OCF)ccc32)c(F)c1` [Example 88], for which the IC50 was more than 10 µM.

Turning to `COc1ccc2c(c1)nnn2C1CCC(CNS(N)(=O)=O)C1` (stereo not drawn) [Example 41, N-((3-(5-methoxy-1H-benzo[d][1,2,3]triazol-1-yl)cyclopentyl)methyl)sulfamide], the IC50 was less than 1 µM.

For the compound `COc1ccc2c(c1)nnn2-c1ccc(CNS(N)(=O)=O)s1` [Example 106, N-((5-(5-methoxy-1H-benzo[d][1,2,3]triazol-1-yl)thiophen-2-yl)methyl)sulfamide], the IC50 is more than 10 µM.

On to `CC(C)Oc1ccc2c(c1)nnn2-c1ccc(CN)cc1F` [Example 20], for which the IC50 is more than 10 µM.

Consider `COc1ccc2c(c1)nnn2Cc1ccc(NS(N)(=O)=O)cc1` [Example 104, N-(4-((5-methoxy-1H-benzo[d][1,2,3]triazol-1-yl)methyl)phenyl)sulfamide Hydrochloride], for which the IC50 was in the range of 1 to 10 µM.

For `NS(=O)(=O)NCc1ccc(-n2nnc3cc(C(F)(F)F)ccc32)c(F)c1` [Example 85], the IC50 was more than 10 µM.

For the compound `COc1ccc2nn(Cc3ccc(CNS(N)(=O)=O)cc3)nc2c1` [Example 110, N-(4-((5-methoxy-2H-benzo[d][1,2,3]triazole-2-yl)benzyl)sulfamide Hydrochloride], the IC50 was 1 to 10 µM.

On to `COc1cc2nnn(-c3ccc(CNS(N)(=O)=O)cc3F)c2cc1OC` [Example 71, N-(4-(5,6-dimethoxy-1H-benzo[d][1,2,3]triazol-1-yl)-3-fluorobenzyl)sulfamide], for which the IC50 is less than 1 µM.

`COc1ccc2c(c1)nnn2CC1CCNCC1` [Example 3, 5-methoxy-1-(piperidin-4-ylmethyl)-1H-benzo[d][1,2,3]triazole]: the 50% inhibitory concentration (IC50) lay within 1 to 10 µM.

As for `COc1ccc2c(c1)nnn2-c1ccc(CNS(N)(=O)=O)cc1` [Example 51, N-(4-(5-methoxy-1H-benzo[d][1,2,3]triazol-1-yl)benzyl)sulfamide Hydrochloride], the IC50 was less than 1 µM.

As for `COc1cc2nnn(-c3ccc(CN)cc3)c2cc1OC` [Example 10, 4-(5,6-dimethoxy-1H-benzo[d][1,2,3]triazol-1-yl)phenyl)methanamine Hydrochloride], the IC50 was 1 to 10 µM.

For `COc1ccc2c(c1)nnn2-c1ccc2c(c1)CC(NS(N)(=O)=O)C2` (stereo not drawn) [Example 95], the IC50 is less than 1 µM.

In the case of `COc1ccc2c(c1)nnn2-c1cccc(NS(N)(=O)=O)c1` [Example 47, N-(3-(5-methoxy-1H-benzo[d][1,2,3]triazol-1-yl)phenyl)sulfamide], the half-maximal inhibitory concentration (IC50) lay in the range of 1 to 10 µM.

In the case of `COc1cc2nnn(-c3ccc(CNS(N)(=O)=O)cc3)c2cc1F` [Example 92, N-(4-(6-fluoro-5-methoxy-1H-benzo[d][1,2,3]triazol-1-yl)benzyl)sulfamide], the IC50 was less than 1 µM.

As to `COc1ccc2c(c1)nnn2-c1ccc2c(c1)CN(S(N)(=O)=O)CCC2` [Example 98, 8-(5-methoxy-1H-benzo[d][1,2,3]triazol-1-yl)-1,3,4,5-tetrahydro-2H-benzo[c]azepine-2-sulfonamide], the IC50 was more than 10 µM.

Regarding `COc1ccc2c(c1)nnn2-c1c(F)cc(CNS(N)(=O)=O)cc1F` [Example 64, N-(3,5-difluoro-4-(5-methoxy-1H-benzo[d][1,2,3]triazol-1-yl)-benzyl)sulfamide], the IC50 was less than 1 µM.

With `CCOc1ccc2c(c1)nnn2-c1ccc(CNS(N)(=O)=O)cc1F` [Example 76, N-(4-(5-ethoxy-1H-benzo[d][1,2,3]triazol-1-yl)-3-fluorobenzyl)sulfamide], the IC50 was more than 10 µM.

In the case of `NS(=O)(=O)NCc1ccc(-n2nnc3ccccc32)cc1` [Example 46, N-(4-(1H-benzo[d][1,2,3]triazol-1-yl)benzyl)sulfamide], the IC50 lay in the range of 1 to 10 µM.

Take `COc1cc2nnn(-c3ccc(CNS(N)(=O)=O)cc3F)c2cc1F` [Example 93, N-(3-fluoro-4-(6-fluoro-5-methoxy-1H-benzo[d][1,2,3]triazol-1-yl)benzyl)sulfamide]: the IC50 was less than 1 µM.

As to `COc1cccc2nnn(-c3ccc(CN)cc3)c12` [Example 8, 4-(7-methoxy-1H-benzo[d][1,2,3]triazol-1-yl)phenyl)methanamine Hydrochloride], the IC50 was more than 10 µM.

Take `COc1cc2nnn(-c3ccc4c(c3)CC(NS(N)(=O)=O)C4)c2cc1OC` (stereo not drawn) [Example 103, N-(5-(5,6-dimethoxy-1H-benzo[d][1,2,3]triazol-1-yl)-dihydro-1H-inden-2-yl)sulfamide]: the IC50 is less than 1 µM.

Consider `NS(=O)(=O)NCc1cc(F)c(-n2nnc3ccccc32)c(F)c1` [Example 58, N-(4-(1H-benzo[d][1,2,3]triazol-1-yl)-3,5-difluorobenzyl)sulfamide], for which the 50% inhibitory concentration (IC50) is less than 1 µM.
